Experiments:
[1] = test system: 8 week old db/db diabetic mice; assay: Hyperinsulinemic-euglycemic clamp, glucose lowering in db/db diabetic mice; assay type: in vivo; conditions: for glucose infusion rate compared to the vehicle control: db/db mice, po bid 13 days, qd day 14, clamp on day 14, insulin 10 mU/kg/min; for glucose uptake in white vastus muscle / augmenting muscle glucose uptake in the gastrocnemius muscle: 14C-2-deoxyglucose during clamp; for glucose uptake in white vastus muscle: non oxidative muscle group; for augmenting muscle glucose uptake in the gastrocnemius muscle: p<0.05
Experimental: Glucose lowering in 8 week old db/db diabetic mice: The hyperinsulinemic-euglycemic clamp protocol was conducted to measure insulin sensitivity in vivo. In this procedure, insulin was administered to raise the insulin concentration while glucose was infused to maintain euglycemia or a fixed, normal blood glucose level (about 180 mg/dL). […] The objective of this protocol was to investigate characterize the capacity of 17α-ethynylandrost-5-ene-3β,7β,17β-triol and androst-5-ene-3β,7β,16α,17β-tetrol to ameliorate systemic insulin resistance and improve whole body glucose disposal in the hyperinsulinemic-euglycemic clamp model. The degree of skeletal muscle and hepatic insulin sensitivity and tissue specific glucose uptake were also assessed. The animals were dosed daily by oral gavage for 14 days. On Day 10 of treatment catheters were implanted in the carotid artery and jugular vein. On the day of the clamp (day 14) the compound was administered at 7:30 am.
Body weight and glucose concentration were assessed on day 0, 7 and day 14 of treatment. On day 14 a euglycemic-hyperinsulinemic clamp was performed. Food was removed at 7:30 am and at 10:30 a primed continuous infusion of [3-^3H]-glucose (0.05 μCi/min) was administered. A baseline blood sample was taken at 12:50 (−10 min) and at 1:00 (0 min) a euglycemic-hyperinsulinemic clamp was initiated by administering 10 mU/kg/min of insulin. Glucose was infused at a variable rate to clamp the glucose concentration at about 180 mg/dl. A bolus of [^14C]-2deoxyglucose was given at the end of the study to assess tissue specific glucose uptake. Plasma ^14C 2-deoxyglucose was assessed at 122, 125, 130, 135, 145 min. The animals were then anesthetized with an intravenous infusion of sodium pentobarbital and selected tissues were removed, immediately frozen in liquid nitrogen and stored at −70° C. until analysis.
Analysis was conducted as follows. Plasma samples were deproteinized with Ba(OH)2 (0.3 N) and ZnSO4 (0.3 N), dried and radioactivity was assessed on scintillation counter (Packard TRICARB 2900 TR, Meriden, Conn.). Frozen tissue samples were homogenized in 0.5% perchloric acid, centrifuged and neutralized. One supernatant was directly counted to determine radioactivity from both [14C] DG and DGP. A second aliquot was treated with Ba(OH)2 and ZnSO4 to remove ^14C DGP and any tracer incorporated into glycogen and then counted to determine radioactivity from free [^14C]DG(2). [^14C]DGP was calculated as the difference between the two aliquots. The accumulation of [^14C]DGP was normalized to tissue weight and tracer bolus. Rg, an index of tissue specific glucose uptake was calculated as previously described (E. W. Kraegen et al., Am. J. Physiol., 248: E353-E362 (1985)). Whole body glucose turnover was calculated as the ratio of the ^3H glucose infusion rate (dpm/kg/min) and arterial plasma glucose specific activity (dpm/mg). Endogenous glucose production was calculated as the difference between the whole body glucose turnover and the exogenous glucose infusion rate (R. N. Bergman et al., Endocr. Rev., 6:45-86, (1985)).

[2] = test system: male Wistar rats, DNBS challenge; assay: DNBS-induced distal colitis, animal model for inflammatory bowel disease; assay type: in vivo; conditions: sc once a day for 6 days, 0.2 or 2.0 mg/animal/day, 25-30% decrease considered significant
Experimental: The capacity of androst-5-ene-3β,7β,16α,17β-tetrol (3β-tetrol) to limit or inhibit inflammation or symptoms of inflammation is shown using an animal model for inflammatory bowel disease using the following protocol.
Groups of 3 male Wistar rats (180±20 grams) fasted for 24 hours before 2,4-dinitrobenzene sulfonic acid (DNBS) or saline challenge are used. Distal colitis is induced by intra-colonic instillation of 0.5 mL of an ethanolic solution of DNBS (30 mg in 0.5 mL of a 30% ethanol in saline solution) after which 2 mL of air was injected through the cannula to ensure that the solution remained in the colon. The volume used was 0.1 mL per injection of 2 and 20 mg/mL of compound such as androst-5-ene-3β,7β,17β-triol or 3β-tetrol in a liquid formulation, which was administered by subcutaneous injection once a day for 6 days (0.2 mg/animal/day or 2.0 mg/animal/day). The formulation contains […] of compound. Concentrations of 2 mg/mL and 20 mg/mL are obtained by […] with vehicle that lacked compound.
The first dose is given 30 minutes after DNBS challenge. […] The presence of diarrhea is recorded daily by examining the anal area. […] Before removal of the colon, signs of adhesion between the colon and other organs are recorded. […]

MG-63 cells = assay: Reversal of adverse effects of dexamethasone in MG-63 osteoblasts (incl. osteoprotegerin synthesis); assay type: cell-based, human
Source text: (§1) The capacity of 5-androstene-3β,7β,17β-triol, androst-5-ene-3β,7β,16α,17β-tetrol (3β-tetrol) and other compounds to reverse adverse effects of glucocorticoids in bone growth was shown in the human MG-63 osteosarcoma cell line. MG-63 cells are osteoblasts, which are cells that mediate bone growth. This cell line has been used extensively to study bone biology and to characterize the biological activity of compounds for treatment of bone loss conditions (e.g., B. D. Boyan et al., J. Biol. Chem., 264(20):11879-11886 (1989); L. C. Hofbauer et al., Endocrinology, 140(10):4382-4389 (1999)). Adverse toxicities associated with elevated glucocorticoid levels include a […] in the production of IL-6 and IL-8 by osteoblasts, including the MG-63 cell line, and an increase in the expression of the 11β-hydroxysteroid dehydrogenase type 1 enzyme (11β-HSD). Increased 11β-hydroxysteroid dehydrogenase type 1 enzyme results in increased levels of endogenous glucocorticoid activity by converting endogenous cortisone to the active cortisol, which inhibits bone growth. The 11β-HSD enzyme is expressed in liver, adipose tissue, brain and bone tissues. Cortisol generated by 11β-HSD-1 contributes to osteoporosis, insulin resistance, type 2 diabetes, dyslipidemia, obesity, central nervous system disorders such as stroke, neuron death, depression and Parkinson Disease. […]

androgen receptor = target: T1, androgen receptor (Homo sapiens, UniProt P10275); assay: Interaction with androgen receptor; assay type: binding
T1 sequence (P10275 1-920): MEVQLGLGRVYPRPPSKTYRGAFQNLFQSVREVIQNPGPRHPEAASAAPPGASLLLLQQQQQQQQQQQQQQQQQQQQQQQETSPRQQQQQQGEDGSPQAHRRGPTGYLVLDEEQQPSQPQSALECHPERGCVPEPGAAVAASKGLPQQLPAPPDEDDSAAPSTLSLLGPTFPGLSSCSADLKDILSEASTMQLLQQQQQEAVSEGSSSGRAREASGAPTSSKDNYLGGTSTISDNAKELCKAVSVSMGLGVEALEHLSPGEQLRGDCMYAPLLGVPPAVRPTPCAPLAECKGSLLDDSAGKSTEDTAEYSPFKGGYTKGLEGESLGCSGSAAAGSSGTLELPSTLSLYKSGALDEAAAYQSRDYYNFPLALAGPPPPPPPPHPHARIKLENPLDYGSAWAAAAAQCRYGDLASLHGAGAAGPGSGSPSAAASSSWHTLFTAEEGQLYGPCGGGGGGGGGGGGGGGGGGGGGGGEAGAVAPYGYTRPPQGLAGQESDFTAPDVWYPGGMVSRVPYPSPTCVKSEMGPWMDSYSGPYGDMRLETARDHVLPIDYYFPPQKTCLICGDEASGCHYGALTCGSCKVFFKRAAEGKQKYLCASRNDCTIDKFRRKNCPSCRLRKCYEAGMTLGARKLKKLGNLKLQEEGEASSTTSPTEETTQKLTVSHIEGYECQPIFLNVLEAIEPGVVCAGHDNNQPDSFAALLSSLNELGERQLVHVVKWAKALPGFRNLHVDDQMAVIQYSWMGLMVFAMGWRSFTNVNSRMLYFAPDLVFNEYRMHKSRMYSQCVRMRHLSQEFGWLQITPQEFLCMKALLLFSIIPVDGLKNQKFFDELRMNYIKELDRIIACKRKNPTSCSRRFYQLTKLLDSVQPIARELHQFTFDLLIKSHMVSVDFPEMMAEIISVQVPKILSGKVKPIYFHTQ

estrogen receptor-α = estrogen receptor-α (Homo sapiens, UniProt P03372); assay: Interaction with estrogen receptor-α; assay type: binding
estrogen receptor-α, sequence (P03372 whole entry): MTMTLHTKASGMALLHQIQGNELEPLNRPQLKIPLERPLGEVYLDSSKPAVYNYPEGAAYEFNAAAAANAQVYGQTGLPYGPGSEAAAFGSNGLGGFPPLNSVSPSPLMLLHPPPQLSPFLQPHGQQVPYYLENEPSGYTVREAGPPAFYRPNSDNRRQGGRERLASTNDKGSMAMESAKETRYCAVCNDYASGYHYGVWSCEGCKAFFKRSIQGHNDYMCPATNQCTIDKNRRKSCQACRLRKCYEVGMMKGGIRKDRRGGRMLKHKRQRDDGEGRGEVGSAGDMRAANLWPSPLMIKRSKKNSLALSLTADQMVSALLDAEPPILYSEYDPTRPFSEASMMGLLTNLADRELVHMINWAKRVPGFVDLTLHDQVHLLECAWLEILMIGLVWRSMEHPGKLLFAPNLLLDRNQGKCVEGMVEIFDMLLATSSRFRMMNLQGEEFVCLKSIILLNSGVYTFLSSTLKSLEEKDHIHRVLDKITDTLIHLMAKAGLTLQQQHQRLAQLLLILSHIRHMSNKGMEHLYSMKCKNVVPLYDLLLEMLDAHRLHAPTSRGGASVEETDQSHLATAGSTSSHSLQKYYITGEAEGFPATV

estrogen receptor-β = estrogen receptor-β (Homo sapiens, UniProt Q92731); assay: Interaction with estrogen receptor-β; assay type: binding
estrogen receptor-β, sequence (Q92731 whole entry, species assumed): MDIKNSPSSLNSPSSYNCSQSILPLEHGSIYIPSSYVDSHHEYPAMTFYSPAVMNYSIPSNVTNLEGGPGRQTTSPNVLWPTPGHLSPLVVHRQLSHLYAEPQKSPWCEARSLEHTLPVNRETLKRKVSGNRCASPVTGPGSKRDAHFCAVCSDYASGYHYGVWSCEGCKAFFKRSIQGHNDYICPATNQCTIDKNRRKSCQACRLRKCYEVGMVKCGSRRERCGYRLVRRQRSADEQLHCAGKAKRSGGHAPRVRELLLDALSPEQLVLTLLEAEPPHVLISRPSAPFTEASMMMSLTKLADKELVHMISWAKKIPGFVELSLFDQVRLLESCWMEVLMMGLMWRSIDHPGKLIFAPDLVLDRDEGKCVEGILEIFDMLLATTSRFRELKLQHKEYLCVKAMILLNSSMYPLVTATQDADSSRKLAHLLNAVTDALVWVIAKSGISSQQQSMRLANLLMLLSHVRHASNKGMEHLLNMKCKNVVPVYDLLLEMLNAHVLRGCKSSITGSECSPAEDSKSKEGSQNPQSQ

IL-6 from MG-63 cells = assay: Inhibition of IL-6 from MG-63 cells; assay type: cell-based; conditions: Homo sapiens, pilot studies
Source text: as §1

osteoprotegerin = assay: Osteoprotegerin levels in dexamethasone-treated mice; assay type: in vivo; conditions: mice treated with vehicle and dexamethasone at 10 μg/day, daily for 23 days (positive control group)
Experimental: Osteoprotegerin levels in mice that are treated with vehicle and dexamethasone at 10 μg/day (positive control group) typically show 3.3 pMol/L osteoprotegerin, […]

| SMILES | glucose infusion rate compared to the vehicle control [1] | glucose uptake in white vastus muscle [1] | augmenting muscle glucose uptake in the gastrocnemius muscle [1] | decrease in net colon-to-body weight ratio [2] | also measured |
| --- | --- | --- | --- | --- | --- |
| C#C[C@]1(O)CC[C@H]2[C@@H]3[C@@H](O)C=C4C[C@@H](O)CC[C@]4(C)[C@H]3CC[C@@]21C [17α-ethynylandrost-5-ene-3β,7β,17β-triol, reference compound] | increased | – | – | – | – |
| C[C@]12CC[C@H]3[C@@H]([C@@H](O)C=C4C[C@@H](O)CC[C@@]43C)[C@@H]1C[C@@H](O)[C@@H]2O [Form 3β-tetrol, androst-5-ene-3β,7β,16α,17β-tetrol] | increased | differences were not detected except between androst-5-ene-3β,7β,16α,17β-tetrol and rosiglitazone | more effective | 25-35% | concentration giving normal osteoprotegerin levels (MG-63 cells; MG-63 cells, 30 nM dexamethasone): 0.1 µM; reversal of the decrease in osteoprotegerin synthesis by MG-63 cells (MG-63 cells; in the presence of 30 nM dexamethasone): completely or partially reversed; interaction with androgen receptor (androgen receptor): does not interact; interaction with estrogen receptor-α (estrogen receptor-α): does not interact; interaction with estrogen receptor-β (estrogen receptor-β): does not interact |
| C[C@]12CC[C@H]3[C@@H]([C@@H](O)C=C4C[C@@H](O)CC[C@@]43C)[C@@H]1CC[C@@H]2O [androst-5-ene-3β,7β,17β-triol, reference compound] | – | – | – | 15-20% | – |
| C[C@@H]1C[C@H]2[C@@H]3CCC4=CC(=O)C=C[C@]4(C)[C@@]3(F)[C@@H](O)C[C@]2(C)[C@@]1(O)C(=O)CO [dexamethasone] | – | – | – | – | IC50 (IL-6 from MG-63 cells): 0.01 µM; osteoprotegerin level (osteoprotegerin): 3.3 pmol/L |
| CN(CCOc1ccc(CC2SC(=O)NC2=O)cc1)c1ccccn1.O=C(O)/C=C\C(=O)O (stereo not drawn) [rosiglitazone, rosiglitazone maleate, reference compound] | – | differences were not detected except between androst-5-ene-3β,7β,16α,17β-tetrol and rosiglitazone | more effective | – | – |

— patent US20120220560A1, “STEROID TETROL SOLID STATE FORMS” (priority 2010, published 2012)
